From patent publication US20130324469A1, “FIBRINOGEN AND KIDNEY DAMAGE” (THE BRIGHAM AND WOMEN'S HOSPITAL, INC., priority 2010, published 2013)
Entries after “also recorded” stand apart in the source; their conditions may differ.

How the values were obtained:
[1] = tested on: rats; test: Galactosamine-induced liver toxicity in rats (specificity of urinary fibrinogen); format: in vivo, rat; conditions: 1.1 g/kg ip, 24 h
[2] = tested on: acute lung injury in animal models; conditions: suprapharmacological doses; cited from earlier work
[3] = tested on: myocardial infarction in animal models; conditions: suprapharmacological doses; cited from earlier work
[4] = biological target: T1, VE-Cadherin (Homo sapiens, UniProt P33151); conditions: disrupts interaction of Fg with VE-Cadherin on endothelial cells; cited from earlier work
T1 sequence (P33151 48-784): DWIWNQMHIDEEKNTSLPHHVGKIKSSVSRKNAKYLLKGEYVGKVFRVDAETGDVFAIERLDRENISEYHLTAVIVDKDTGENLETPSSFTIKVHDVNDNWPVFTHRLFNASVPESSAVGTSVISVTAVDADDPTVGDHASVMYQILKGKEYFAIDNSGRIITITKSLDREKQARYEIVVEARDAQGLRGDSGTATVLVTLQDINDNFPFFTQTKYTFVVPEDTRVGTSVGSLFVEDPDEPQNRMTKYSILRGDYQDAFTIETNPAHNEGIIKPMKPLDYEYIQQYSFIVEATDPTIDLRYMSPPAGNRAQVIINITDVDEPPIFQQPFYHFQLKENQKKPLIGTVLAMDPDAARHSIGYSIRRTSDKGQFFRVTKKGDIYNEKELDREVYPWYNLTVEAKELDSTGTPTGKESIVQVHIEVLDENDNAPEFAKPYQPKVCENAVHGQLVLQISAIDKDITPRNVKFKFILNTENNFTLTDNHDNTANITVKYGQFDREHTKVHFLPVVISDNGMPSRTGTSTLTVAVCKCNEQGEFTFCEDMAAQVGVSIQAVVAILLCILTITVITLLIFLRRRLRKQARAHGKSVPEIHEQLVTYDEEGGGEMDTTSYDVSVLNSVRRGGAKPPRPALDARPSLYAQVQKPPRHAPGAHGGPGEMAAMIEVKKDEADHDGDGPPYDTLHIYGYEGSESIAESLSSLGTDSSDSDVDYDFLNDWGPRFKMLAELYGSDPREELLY

[5] = tested on: renal I/R injury in C57BL/6 mice; test: 27 min bilateral renal ischemia/reperfusion (I/R) injury in mice, peptide given iv after reperfusion; format: in vivo, mouse
Experimental: FIG. 3 is a set of four bar graphs showing that Bβ15-42 peptide protects mice from renal ischemia/reperfusion (I/R) injury. Male C57Bl6 mice were subjected to 27 minutes bilateral renal ischemia/reperfusion injury or sham surgery and 3.6 mg/kg of Bβ15-42 peptide or random peptide was administered intravenously 1 min following reperfusion. […] Serum creatinine (SCr), blood urea nitrogen (BUN) as indicators of renal dysfunction and urinary levels of fibrinogen (Fg) and kidney injury molecule-1 (Kim-1) as indicators of kidney injury were measured at 24 and 48 h in all the groups. (n=5/group of sham, n=10/group at 24 hours and n=5/group at 48 hours).* represents p<0.05 as determined by one way ANOVA in comparison with sham mice.
Blood and urine analysis was performed as follows. At sacrifice, blood was collected from dorsal aorta in heparinized tubes. Serum creatinine (SCr) concentrations were measured using a Beckman Creatinine Analyzer II. Blood urea nitrogen (BUN) was measured spectrophotometrically at 340 nm using a commercially available kit (Thermo Scientific, Rockford, Ill.) as described before (Krishnamoorthy et al., Toxicol Sci. 2010; 118(1):298-306).
Urines were collected by placing animals in individual metabolic cages and one ml of RNAlater (Ambion, Austin, Tex.) was added to the tubes to preserve RNA. Urinary Kidney Injury Molecule-1 (Kim-1 in rats and KIM-1 in humans) was measured using previously established luminex-based assays (Vaidya et al., Nat Biotechnol. 2010; 28(5):478-485; Vaidya et al., Clinical and Translational Science. 2008; 1(3):200-208). Urinary Kim-1 in mice was measured using a luminex-based assay. Urinary N-acetyl-β-D-glucosaminidase (NAG) was measured spectrophotometrically according to the manufacturers' protocols (Roche diagnostics, Basel Switzerland). Urinary creatinine concentration was used to normalize biomarker measurements in order to account for the influence of urinary dilution on biomarker concentrations. Fibrinogen in mouse, rat and human urines was measured using a commercially available species-specific luminex assay based kit from Millipore (Billerica, Mass.).
Immunostaining, to evaluate the cellular expression profile of Fg whole protein and Fgα, Fgβ and Fgγ chains was performed as follows. Kidney tissues were perfused with cold PBS before harvesting and then fixed in formalin for 16 h and embedded in paraffin. The sections incubated overnight at 4° C. in rabbit monoclonal anti-Fibrinogen alpha (Epitomics, Burlingame, Calif.), rabbit polyclonal anti-Fibrinogen beta (ProteinTech Group, Chicago, Ill.), rabbit polyclonal anti-Fibrinogen gamma (ProteinTech Group, Chicago, Ill.), anti-rat fibrinogen (Nordic Immunological Laboratories, Tilburg, The Netherlands), anti-human fibrinogen (Sigma-Aldrich, St. Louis, Mo.) and rabbit monoclonal anti-Ki67 (Vector Laboratories, Burlingame, Calif.). The primary antibody was detected using goat anti-rabbit Cy3 labeled and donkey anti goat Cy3 labeled secondary antibodies (Jackson ImmunoResearch Laboratories, West Grove, Pa.). DAPI (Sigma Aldrich, St. Louis, Mo.) was used for nuclear staining. The tissue sections were mounted using ProLong Gold Antifade Reagent (Invitrogen, Carlsbad, Calif.). The images were captured at 100× for rats, 60× for mice and humans using NIKON Eclipse 90i fluorescence microscope.
Endotoxin free Bβ15-42 ([…]) and random peptide ([…]) were custom synthesized (Invitrogen, Carlsbad, Calif.) with 95% modification and N-terminal amine group addition and free acid modification. Bβ15-42 or random peptide (3.6 mg/kg) was administered intravenously (iv) 1 min after reperfusion following 27 min bilateral renal I/R injury in C57BL/6 mice (n=5 to 10/group). Forty male C57Bl6 wild type mice were anesthetized using pentobarbital sodium (30 mg/kg, ip) and subjected to 27 min of bilateral renal I/R surgery by the retroperitoneal approach. Sham surgery was performed with exposure of both kidneys but without induction of ischemia. […]

[6] = tested on: LLC-PK1 cells; test: BrdU uptake (cell proliferation) of LLC-PK1 cells after mineral-oil hypoxia; format: cell-based, pig; conditions: 6 μM; 48 h post hypoxia; serum free; vs random peptide
Experimental: FIG. 4E is a bar graph showing cell proliferation measured by bromodeoxyuridine (5-bromo-2-deoxyuridine (BrdU) uptake, by LLC-PK1 cells, 48 h post onset of hypoxia at 450 nm wavelength. Absorbance obtained from untreated cells was taken as 100% (n=6 wells/group). * represents p<0.05 as determined by Student's t-test between the two groups.
In vitro experiments using proximal tubular epithelial cells (LLC-PK1) were also performed. The renal tubular epithelial cell line, LLC-PK1, established from pig renal cortex was obtained from ATCC (Manassas, Va.) and maintained in DMEM containing 10% FBS. Two thousand five hundred LLC-PK1 cells were plated in 96 well plate for 24 h in DMEM 10% fetal bovine serum (FBS) at which time they formed a 50% confluent monolayer in the well. They were pretreated with 6 μM of Bβ15-42 or random peptide for 6 h and were immersed in 100 μl of mineral oil on top of DMEM medium without any serum for 6 h. […] Bromodeoxyuridine (5-bromo-2-deoxyuridine (BrdU) was measured as an index of cell proliferation by incubating cells with BrdU for 2 h before harvesting and the absorbance was quantified using a spectrophotometer at 450 nm wavelength as per manufacturer's instructions (Millipore, Bellerica, Mass.). Absorbance obtained from untreated cells was taken as 100% (n=6 wells/group) and the experiment was repeated twice.

[7] = tested on: patients with acute myocardial infarction; conditions: phase IIa; patients whose endothelial barrier integrity had not been compromised; cited from earlier work
[8] = mean ± SEM, listed as galactosamine
[9] = 3.6 mg/kg iv, 24 and 48 h, vs random peptide
[10] = 3.6 mg/kg iv, 24 h after I/R, vs random peptide

N[C@H]1C(O)O[C@H](CO)[C@H](O)[C@@H]1O (stereo partly drawn) [Galactosamine, galactosamine]
histopathological score kidney [1]: 0
histopathological score liver [1]: 2
histopathological score kidney ([1]; listed as galactosamine): no signs of kidney structural or functional damage
histopathological score liver ([1]; listed as galactosamine): extensive hepatocellular damage
ALT ([1]; mean ± SEM): 422.8 ± 121.9 U/l
AST ([1]; mean ± SEM): 246.0 ± 57.5 U/l
BUN ([1]; mean ± SEM): 19.1 ± 1.1 mg/dL
Scr ([1]; mean ± SEM): 0.5 ± 0.0 mg/dL
kidney Fgα gene expression (FC relative to control) ([1]; mean ± SEM): 1.2 ± 0.1 FC
kidney Fgβ gene expression (FC relative to control) ([1]; mean ± SEM): 1.0 ± 0.0 FC
kidney Fgγ gene expression (FC relative to control) ([1]; mean ± SEM): 0.9 ± 0.1 FC
kidney Kim-1 gene expression (FC relative to control) ([1]; mean ± SEM): 1.0 ± 0.1 FC
urinary excretion of Fg ([1]; mean ± SEM): 26.0 ± 26.0 ng/mg Cr
ALT [1, 8]: significant increase
AST [1, 8]: significant increase
kidney Fgα gene expression (FC relative to control) [1, 8]: did not lead to any increase
kidney Fgβ gene expression (FC relative to control) [1, 8]: did not lead to any increase
kidney Fgγ gene expression (FC relative to control) [1, 8]: did not lead to any increase
urinary excretion of Fg [1, 8]: did not lead to any increase

GHRPLDKKREEAPSLRPAPPPISGGGYR (synthetically generated peptides) [Bβ15-42, naturally occurring 28 amino acid long product cleaved from fibrin fragments; Fgβ chain derived peptide, custom synthesized, endotoxin free]
protection from acute lung injury [2]: protect
protection from myocardial infarction [3]: protect
interactions with VE-Cadherin [4]: low affinity
infarct size and vascular congestion ([5]; 3.6 mg/kg iv 1 min after reperfusion, vs random peptide): significant reduction; also recorded: significantly smaller
leukocyte infiltration (myeloperoxidase staining) [5, 9]: similar
mRNA levels of inflammatory cytokines (IL-1β, IL-6, IL-10, TNFα, ICAM) and macrophage marker (CD68) in kidney [5, 9]: no difference
proximal tubular damage in the outer stripe of outer medulla (H & E histopathology) [5, 10]: significant decrease
reduction in kidney dysfunction measured by blood urea nitrogen (BUN) [5, 10]: Approximately 50%
reduction in kidney dysfunction measured by serum creatinine (SCr) [5, 10]: Approximately 50%
reduction in kidney proximal tubular injury measured by urinary Fg [5, 10]: Approximately 50%
reduction in kidney proximal tubular injury measured by urinary kidney injury molecule-1 [5, 10]: Approximately 50%
number of TUNEL positive apoptotic cells in the renal medulla ([5]; 24 h, vs random peptide): similar
apoptosis (TUNEL) in the renal medulla ([5]; 48 h, p<0.05 vs random peptide): significant decrease
proliferative (Ki67 positive) cells in the renal medulla ([5]; 48 h, vs random peptide): significant number of cells appeared to be in a proliferative state
acute tubular injury ([5]; mice, bilateral renal I/R injury): substantially reduced
renal epithelial cell proliferation (BrdU uptake) [6]: stimulating renal epithelial cell proliferation
clinical effect in acute myocardial infarction [7]: successful protective effects
